{
  "source": "PubChem BioAssay (NCI)",
  "note": "Values joined by “and” are separate entries in the source; they are usually repeats but may differ in a detail not shown here. Equal values may be shown once.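 Results reflect a 48-hour exposure of cells in 96-well plates to compound at five concentrations. Abbreviation: GI50, concentration required for 50% inhibition of growth. At the TGI there is no net growth.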",
  "data": [
    {"test_system": "786-0 renal", "experiment": "NCI-60 cell line screen, 48 h", "units": {"GI50": "µM"}, "values": [
      {"smiles": "CN(C)CCCn1c2c(c3ccccc3c1=O)C(=O)c1ccccc1-2", "GI50": 2.47, "TGI": "14.2 µM"},
      {"smiles": "COc1ccc2c(c1)C=C([N+](=O)[O-])C(C1OC(C)(C)OC1C1COC(C)(C)O1)O2", "note": "(centres undefined)", "TGI": "26.5 µM"},
      {"smiles": "CN(C)CCNC(=O)c1cccc(C(=O)Nc2ccccc2)c1[N+](=O)[O-]", "TGI": "> 100 µM"},
      {"smiles": "CC(=O)OC1Oc2ccccc2-c2oc(=O)c(-c3cc4ccc(N(C)C)cc4oc3=O)cc21", "note": "(centres undefined)", "GI50": 15.7, "TGI": "39.3 µM"},
      {"smiles": "CCC1(O)C(=O)OCc2c1cc1n(c2=O)Cc2cc3ccc(C=O)cc3nc2-1", "note": "(centres undefined)", "GI50": 0.45, "TGI": "9.18 µM and 4.95 µM"},
      {"smiles": "COc1ccc2c(c1)C(=O)c1c-2n(CCCn2ccnc2)c(=O)c2ccccc12", "GI50": 0.239, "TGI": "1.66 µM"},
      {"smiles": "COc1cc2oc(-c3ccc(O)cc3)cc(=O)c2c(OC)c1OC", "TGI": "> 100 µM"},
      {"smiles": "Fc1cc(F)c(COc2cc(Cn3cnc4c(Cl)nc(Cl)nc43)ccc2C23CC4CC(CC(C4)C2)C3)cc1F", "GI50": 19.4, "TGI": "34.9 µM"},
      {"smiles": "CC/C=C\\C[C@@H]1C/C=C2/C(=O)C=C[C@H]2C/C=C\\CCCC(=O)O1", "GI50": 0.818, "TGI": "2.18 µM"},
      {"smiles": "NC(=S)N/N=C/c1ccc(OC(=O)COc2ccc(Cl)cc2)cn1", "GI50": 3.64, "TGI": "9.98 µM"},
      {"smiles": "O=C(N/N=C/c1cccc(O)c1O)c1ccccc1", "GI50": 1.48, "TGI": "> 100 µM"},
      {"smiles": "c1ccc(C2=NNC3c4ccccc4-c4ccccc4N3C2)cc1", "note": "(centres undefined)", "TGI": "> 100 µM"},
      {"smiles": "CN/N=C(/CCN1CCCC1)CC(c1ccccc1)c1c(O)c2ccccc2oc1=O", "note": "(centres undefined)", "TGI": "> 100 µM"},
      {"smiles": "COc1ccc(OC)c(/C=C/C(=O)N/N=C/c2ccc(Cl)cc2)c1", "GI50": 0.143, "TGI": "> 100 µM"},
      {"smiles": "O=C1c2ccccc2-c2c1c1ccccc1c(=O)n2Cc1ccccc1", "TGI": "> 100 µM"},
      {"smiles": "CCN(CC)c1sc(N(CC)CC)c2c1SSSSS2", "GI50": 1.2, "TGI": "3.09 µM"},
      {"smiles": "O=C(c1cccc(O)c1O)c1cn(Cc2ccc(F)cc2)c2cccc(O)c12", "GI50": 7.46, "TGI": "20.8 µM"},
      {"smiles": "Nc1ncc(-c2cnn(CCO)c2)c2scc(-c3ccc(NC(=O)Nc4cccc(F)c4)cc3)c12", "GI50": 0.45, "TGI": "6.69 µM"},
      {"smiles": "COc1cc(C2=NN(C(C)=O)C(c3ccc(OC(C)=O)cc3OC(C)=O)O2)c(OC(C)=O)c2ccccc12", "note": "(centres undefined)", "GI50": 0.902, "TGI": "12.7 µM"},
      {"smiles": "COC(=O)Nc1nc2ccc(Oc3ccc(NC(=O)Nc4ccccc4)cc3)cc2[nH]1", "GI50": 0.18, "TGI": "5.05 µM"},
      {"smiles": "O=C1c2c(Br)sc(Br)c2C(NC(=O)C(F)(F)F)C1O", "note": "(centres undefined)", "TGI": "36.7 µM"},
      {"smiles": "CCN(CC)CCCC(C)Nc1c(C)cnc2cc(Cl)c(C)cc12", "note": "(centres undefined)", "GI50": 10.8, "TGI": "23 µM"},
      {"smiles": "CC(=O)OC1CC(O)C23COC(O)C1(C)C2CC(O)C1(C)C3C(=O)C(O)C2(C)C(c3ccoc3)CC3OC321", "note": "(centres undefined)", "GI50": 0.0897, "TGI": "> 64.2 µM"},
      {"smiles": "COc1ccc(C(C)c2cc3c(cc2OC)OCO3)cc1", "note": "(centres undefined)", "TGI": "> 53.4 µM"},
      {"smiles": "CCc1[nH]c(=O)nc(N)c1-c1ccc(N2CCCCC2)c([N+](=O)[O-])c1", "TGI": "> 100 µM"},
      {"smiles": "COC(=O)C(=O)C(C(=O)C(=O)Nc1ccccc1C(N)=O)c1nc2ccc(Cl)cc2[nH]c1=O", "note": "(centres undefined)", "TGI": "> 100 µM"},
      {"smiles": "CCC#CC[C@H]1C/C=C2/C(=O)C=C[C@@H]2C/C=C\\CCCC(=O)O1", "GI50": 1.06, "TGI": "2.4 µM"},
      {"smiles": "CCN(CC)CCN1CC(O)=C(c2nc(-c3ccc(Cl)cc3)cs2)C1=N", "GI50": 1.62, "TGI": "3.19 µM"},
      {"smiles": "COc1cc(OC)c(/C=C/C(=O)c2c(OC)cccc2OC)c(OC)c1", "GI50": 0.536, "TGI": "3.89 µM"}
    ]},
    {"test_system": "A498 renal", "experiment": "NCI-60 cell line screen, 48 h", "units": {"GI50": "µM"}, "values": [
      {"smiles": "CN(C)CCCn1c2c(c3ccccc3c1=O)C(=O)c1ccccc1-2", "GI50": 5.99, "TGI": "22.1 µM"},
      {"smiles": "COc1ccc2c(c1)C=C([N+](=O)[O-])C(C1OC(C)(C)OC1C1COC(C)(C)O1)O2", "note": "(centres undefined)", "TGI": "33.3 µM"},
      {"smiles": "CN(C)CCNC(=O)c1cccc(C(=O)Nc2ccccc2)c1[N+](=O)[O-]", "TGI": "> 100 µM"},
      {"smiles": "CC(=O)OC1Oc2ccccc2-c2oc(=O)c(-c3cc4ccc(N(C)C)cc4oc3=O)cc21", "note": "(centres undefined)", "GI50": 6.91, "TGI": "26.5 µM"},
      {"smiles": "CCC1(O)C(=O)OCc2c1cc1n(c2=O)Cc2cc3ccc(C=O)cc3nc2-1", "note": "(centres undefined)", "GI50": 5.39, "TGI": "13.5 µM and 19.5 µM"},
      {"smiles": "COc1ccc2c(c1)C(=O)c1c-2n(CCCn2ccnc2)c(=O)c2ccccc12", "GI50": 0.471, "TGI": "1.76 µM"},
      {"smiles": "COc1cc2oc(-c3ccc(O)cc3)cc(=O)c2c(OC)c1OC", "TGI": "> 100 µM"},
      {"smiles": "Fc1cc(F)c(COc2cc(Cn3cnc4c(Cl)nc(Cl)nc43)ccc2C23CC4CC(CC(C4)C2)C3)cc1F", "GI50": 99.2, "TGI": "> 100 µM"},
      {"smiles": "CC/C=C\\C[C@@H]1C/C=C2/C(=O)C=C[C@H]2C/C=C\\CCCC(=O)O1", "GI50": 1.81, "TGI": "3.3 µM"},
      {"smiles": "NC(=S)N/N=C/c1ccc(OC(=O)COc2ccc(Cl)cc2)cn1", "GI50": 11.9, "TGI": "71 µM"},
      {"smiles": "O=C(N/N=C/c1cccc(O)c1O)c1ccccc1", "GI50": 6.28, "TGI": "65.4 µM"},
      {"smiles": "c1ccc(C2=NNC3c4ccccc4-c4ccccc4N3C2)cc1", "note": "(centres undefined)", "TGI": "98.5 µM"},
      {"smiles": "CN/N=C(/CCN1CCCC1)CC(c1ccccc1)c1c(O)c2ccccc2oc1=O", "note": "(centres undefined)", "TGI": "> 100 µM"},
      {"smiles": "COc1ccc(OC)c(/C=C/C(=O)N/N=C/c2ccc(Cl)cc2)c1", "GI50": 0.111, "TGI": "36.6 µM"},
      {"smiles": "O=C1c2ccccc2-c2c1c1ccccc1c(=O)n2Cc1ccccc1", "TGI": "> 100 µM"},
      {"smiles": "CCN(CC)c1sc(N(CC)CC)c2c1SSSSS2", "GI50": 2.03, "TGI": "3.54 µM"},
      {"smiles": "O=C(c1cccc(O)c1O)c1cn(Cc2ccc(F)cc2)c2cccc(O)c12", "GI50": 12.9, "TGI": "25.6 µM"},
      {"smiles": "Nc1ncc(-c2cnn(CCO)c2)c2scc(-c3ccc(NC(=O)Nc4cccc(F)c4)cc3)c12", "GI50": 0.122, "TGI": "0.663 µM"},
      {"smiles": "COc1cc(C2=NN(C(C)=O)C(c3ccc(OC(C)=O)cc3OC(C)=O)O2)c(OC(C)=O)c2ccccc12", "note": "(centres undefined)", "GI50": 1.59, "TGI": "11.6 µM"},
      {"smiles": "COC(=O)Nc1nc2ccc(Oc3ccc(NC(=O)Nc4ccccc4)cc3)cc2[nH]1", "GI50": 0.141, "TGI": "4.97 µM"},
      {"smiles": "O=C1c2c(Br)sc(Br)c2C(NC(=O)C(F)(F)F)C1O", "note": "(centres undefined)", "TGI": "> 100 µM"},
      {"smiles": "CCN(CC)CCCC(C)Nc1c(C)cnc2cc(Cl)c(C)cc12", "note": "(centres undefined)", "GI50": 16.6, "TGI": "31.4 µM"},
      {"smiles": "CC(=O)OC1CC(O)C23COC(O)C1(C)C2CC(O)C1(C)C3C(=O)C(O)C2(C)C(c3ccoc3)CC3OC321", "note": "(centres undefined)", "GI50": "> 100", "TGI": "> 100 µM"},
      {"smiles": "COc1ccc(C(C)c2cc3c(cc2OC)OCO3)cc1", "note": "(centres undefined)", "TGI": "> 100 µM"},
      {"smiles": "CCc1[nH]c(=O)nc(N)c1-c1ccc(N2CCCCC2)c([N+](=O)[O-])c1", "TGI": "> 100 µM"},
      {"smiles": "COC(=O)C(=O)C(C(=O)C(=O)Nc1ccccc1C(N)=O)c1nc2ccc(Cl)cc2[nH]c1=O", "note": "(centres undefined)", "TGI": "> 100 µM"},
      {"smiles": "CCC#CC[C@H]1C/C=C2/C(=O)C=C[C@@H]2C/C=C\\CCCC(=O)O1", "GI50": 1.08, "TGI": "2.49 µM"},
      {"smiles": "CCN(CC)CCN1CC(O)=C(c2nc(-c3ccc(Cl)cc3)cs2)C1=N", "GI50": 1.72, "TGI": "3.47 µM"},
      {"smiles": "COc1cc(OC)c(/C=C/C(=O)c2c(OC)cccc2OC)c(OC)c1", "GI50": 0.308}
    ]},
    {"test_system": "HL-60(TB) leukemia", "experiment": "NCI-60 cell line screen, 48 h", "units": {"GI50": "µM", "TGI": "µM"}, "values": [
      {"smiles": "CN(C)CCCn1c2c(c3ccccc3c1=O)C(=O)c1ccccc1-2", "GI50": 1.74, "TGI": 3.85},
      {"smiles": "COc1ccc2c(c1)C=C([N+](=O)[O-])C(C1OC(C)(C)OC1C1COC(C)(C)O1)O2", "note": "(centres undefined)", "TGI": 5.49},
      {"smiles": "CN(C)CCNC(=O)c1cccc(C(=O)Nc2ccccc2)c1[N+](=O)[O-]", "TGI": "> 100"},
      {"smiles": "CC(=O)OC1Oc2ccccc2-c2oc(=O)c(-c3cc4ccc(N(C)C)cc4oc3=O)cc21", "note": "(centres undefined)", "GI50": 8.16, "TGI": "> 100"},
      {"smiles": "CCC1(O)C(=O)OCc2c1cc1n(c2=O)Cc2cc3ccc(C=O)cc3nc2-1", "note": "(centres undefined)", "TGI": 5.99},
      {"smiles": "COc1ccc2c(c1)C(=O)c1c-2n(CCCn2ccnc2)c(=O)c2ccccc12", "GI50": 1.49, "TGI": 18.4},
      {"smiles": "COc1cc2oc(-c3ccc(O)cc3)cc(=O)c2c(OC)c1OC", "TGI": "> 100"},
      {"smiles": "Fc1cc(F)c(COc2cc(Cn3cnc4c(Cl)nc(Cl)nc43)ccc2C23CC4CC(CC(C4)C2)C3)cc1F", "GI50": 1.99, "TGI": 4.58},
      {"smiles": "CC/C=C\\C[C@@H]1C/C=C2/C(=O)C=C[C@H]2C/C=C\\CCCC(=O)O1", "GI50": 0.277, "TGI": 0.716},
      {"smiles": "NC(=S)N/N=C/c1ccc(OC(=O)COc2ccc(Cl)cc2)cn1", "GI50": 0.954, "TGI": 20.8},
      {"smiles": "O=C(N/N=C/c1cccc(O)c1O)c1ccccc1", "GI50": 0.301, "TGI": 1.94},
      {"smiles": "c1ccc(C2=NNC3c4ccccc4-c4ccccc4N3C2)cc1", "note": "(centres undefined)", "TGI": 6.91}
    ]}
  ]
}
